The text below walks through data of ChEMBL document CHEMBL4665696, “Highly Modified Lanostane Triterpenes from the Wood-Rot Basidiomycete Ganoderma colossus: Comparative Chemical Investigations of Natural and Artificially Cultivated Fruiting Bodies and Mycelial Cultures” (J Nat Prod, 2020).

Values after ≈ are worked out from the molar mass of the structure shown. Where only a bound is given, the exact number is not on record here.

The first assay has as its system Vero. Put plainly: Cytotoxicity against African green monkey Vero cells by green fluorescent protein-based assay. It is filed as cell-based. Conditions: Chlorocebus sabaeus.
In turn, `Cc1c2ccncc2c(C)c2c1[nH]c1ccccc12` [ELLIPTECINE] registered an IC50 of 0.87 µg/mL (≈ 3.53 µM).
In turn, `CC(=O)OC[C@]12CCC(=O)OC(C)(C)[C@@H]1CC=C1C2=CC[C@]2(C)[C@@H]([C@H](C)[C@H](C/C=C(/C)C(=O)O)OC(C)=O)CC[C@@]12C` gave an IC50 above 50 µg/mL.
`CC(=O)OC[C@@]1(CCC(=O)O)C2=C(CC[C@H]1C(C)(C)O)[C@]1(C)CC[C@H]([C@H](C)[C@H](C/C=C(/C)C(=O)O)OC(C)=O)[C@@]1(C)CC2` showed an IC50 above 50 µg/mL.
Molecule `CC1=CC[C@@H]([C@@H](C)[C@H]2CC[C@@]3(C)C4=C(CC[C@]23C)[C@@]2(C)CCC(=O)C(C)(C)[C@@H]2CC4)OC1=O` displayed an IC50 above 50 µg/mL.
Still for that read-out and setting: then `CC(=O)OC[C@]12CCC(=O)OC(C)(C)[C@@H]1CCC1=C2CC[C@]2(C)[C@@H]([C@H](C)[C@H](C/C=C(/C)C(=O)O)OC(C)=O)CC[C@@]12C`, with above 50 µg/mL; and `CC(=O)O[C@@H](C/C=C(/C)C(=O)O)[C@@H](C)[C@H]1CC[C@@]2(C)C3=CC[C@@H](C(C)(C)OC(C)=O)[C@]4(CCC(=O)OC4)C3=CC[C@]12C`, with above 50 µg/mL; and `CC(=O)OC[C@@]1(CCC(=O)O)C2=C(CC[C@H]1C(C)(C)O)[C@]1(C)CC[C@H]([C@H](C)[C@@H]3CC=C(C)C(=O)O3)[C@@]1(C)CC2`, with above 50 µg/mL.
As to `CC1=CC[C@@H]([C@@H](C)[C@H]2CC[C@@]3(C)C4=C(CC[C@]23C)[C@]23CC[C@H](OC2=O)C(C)(C)[C@@H]3CC4)OC1=O`, the IC50 is above 50 µg/mL.
Turning to `CC(=O)OC[C@]12CC[C@H](O)C(C)(C)[C@@H]1CCC1=C2CC[C@]2(C)[C@@H]([C@H](C)[C@H](C/C=C(/C)C(=O)O)OC(C)=O)CC[C@@]12C`, the IC50 is above 50 µg/mL.
On the same count and under the same terms, the result for `CC(=O)O[C@@H]1C[C@H]([C@H](C)[C@@H]2CC=C(C)C(=O)O2)[C@@]2(C)CCC3=C(CC[C@H]4C(C)(C)OC(=O)C=C[C@]45C[C@H]35)[C@]12C` reads 8.5 µg/mL (≈ 15.8 µM); that for `CC(=O)OC[C@@]1(CCC(=O)O)C2=CC[C@]3(C)[C@@H]([C@H](C)[C@H](C/C=C(/C)C(=O)O)OC(C)=O)CC[C@@]3(C)C2=CC[C@H]1C(C)(C)O`, above 50 µg/mL.
`CC(=O)OC[C@@]1(CCC(=O)O)C2=C(CC[C@H]1C(C)(C)O)[C@]1(C)CC[C@H]([C@H](C)[C@H]3OC(=O)C(C)=C[C@@H]3O)[C@@]1(C)CC2` had an IC50 above 50 µg/mL.
Same read-out and setting: then `CC(=O)O[C@@H](C/C=C(/C)C(=O)O)[C@@H](C)[C@H]1CC[C@@]2(C)C3=C(C=C4C=CC(=O)OC(C)(C)[C@@H]4CC3)CC[C@]12C`, with 49.2 µg/mL (≈ 93.8 µM).

Another assay has as its system Plasmodium falciparum. The experiment in a line: Antimalarial activity against Plasmodium falcipuram K1 by microculture radioistope technique. It is filed as functional, organism-based.
Conditions: not given
`CC(=O)OC[C@]12CCC(=O)OC(C)(C)[C@@H]1CC=C1C2=CC[C@]2(C)[C@@H]([C@H](C)[C@H](C/C=C(/C)C(=O)O)OC(C)=O)CC[C@@]12C` had an IC50 above 10 µg/mL.
The molecule `CC(=O)OC[C@@]1(CCC(=O)O)C2=C(CC[C@H]1C(C)(C)O)[C@]1(C)CC[C@H]([C@H](C)[C@H](C/C=C(/C)C(=O)O)OC(C)=O)[C@@]1(C)CC2` showed an IC50 above 10 µg/mL.
Still for that read-out and setting: the result for `CC1=CC[C@@H]([C@@H](C)[C@H]2CC[C@@]3(C)C4=C(CC[C@]23C)[C@@]2(C)CCC(=O)C(C)(C)[C@@H]2CC4)OC1=O` reads 3.6 µg/mL (≈ 7.95 µM).
Regarding `CC(=O)OC[C@]12CCC(=O)OC(C)(C)[C@@H]1CCC1=C2CC[C@]2(C)[C@@H]([C@H](C)[C@H](C/C=C(/C)C(=O)O)OC(C)=O)CC[C@@]12C`, the IC50 is above 10 µg/mL.
The same measure, in the same setting: then `CC(=O)O[C@@H](C/C=C(/C)C(=O)O)[C@@H](C)[C@H]1CC[C@@]2(C)C3=CC[C@@H](C(C)(C)OC(C)=O)[C@]4(CCC(=O)OC4)C3=CC[C@]12C`, with 5.8 µg/mL (≈ 9.92 µM); and `CC(=O)OC[C@@]1(CCC(=O)O)C2=C(CC[C@H]1C(C)(C)O)[C@]1(C)CC[C@H]([C@H](C)[C@@H]3CC=C(C)C(=O)O3)[C@@]1(C)CC2`, with 8.2 µg/mL (≈ 15.1 µM); and `CC1=CC[C@@H]([C@@H](C)[C@H]2CC[C@@]3(C)C4=C(CC[C@]23C)[C@]23CC[C@H](OC2=O)C(C)(C)[C@@H]3CC4)OC1=O`, with above 10 µg/mL.
In the case of `CC(=O)OC[C@]12CC[C@H](O)C(C)(C)[C@@H]1CCC1=C2CC[C@]2(C)[C@@H]([C@H](C)[C@H](C/C=C(/C)C(=O)O)OC(C)=O)CC[C@@]12C`, the IC50 was above 10 µg/mL.
Still for that read-out and setting: then `CC(=O)O[C@@H]1C[C@H]([C@H](C)[C@@H]2CC=C(C)C(=O)O2)[C@@]2(C)CCC3=C(CC[C@H]4C(C)(C)OC(=O)C=C[C@]45C[C@H]35)[C@]12C`, with 0.001 µg/mL (≈ 0.00186 µM).
Still for that read-out and setting: the result for `Cl.O[C@@H](c1cc(C(F)(F)F)nc2c(C(F)(F)F)cccc12)[C@H]1CCCCN1` reads above 10 µg/mL; that for `C[C@H]1[C@@H](O)O[C@@H]2O[C@@]3(C)CC[C@H]4[C@H](C)CC[C@@H]1[C@@]24OO3` [ARTENIMOL], above 10 µg/mL.
`CC(=O)OC[C@@]1(CCC(=O)O)C2=CC[C@]3(C)[C@@H]([C@H](C)[C@H](C/C=C(/C)C(=O)O)OC(C)=O)CC[C@@]3(C)C2=CC[C@H]1C(C)(C)O` showed an IC50 of 1.4 µg/mL (≈ 2.32 µM).
On the same count and under the same terms, the result for `CC(=O)OC[C@@]1(CCC(=O)O)C2=C(CC[C@H]1C(C)(C)O)[C@]1(C)CC[C@H]([C@H](C)[C@H]3OC(=O)C(C)=C[C@@H]3O)[C@@]1(C)CC2` reads 5 µg/mL (≈ 8.92 µM).
On the same count and under the same terms, the result for `CC(=O)O[C@@H](C/C=C(/C)C(=O)O)[C@@H](C)[C@H]1CC[C@@]2(C)C3=C(C=C4C=CC(=O)OC(C)(C)[C@@H]4CC3)CC[C@]12C` reads 0.03 µg/mL (≈ 0.0572 µM).

In another assay the test system is Mycobacterium tuberculosis. Put plainly: Antitubercular activity against Mycobacterium tuberculosis H37Ra by green fluorescent protein microplate assay. Type of assay: functional.
Conditions: not given
`CC(=O)OC[C@]12CCC(=O)OC(C)(C)[C@@H]1CC=C1C2=CC[C@]2(C)[C@@H]([C@H](C)[C@H](C/C=C(/C)C(=O)O)OC(C)=O)CC[C@@]12C` had an MIC above 50 µg/mL.
`CC(=O)OC[C@@]1(CCC(=O)O)C2=C(CC[C@H]1C(C)(C)O)[C@]1(C)CC[C@H]([C@H](C)[C@H](C/C=C(/C)C(=O)O)OC(C)=O)[C@@]1(C)CC2`: the MIC was above 50 µg/mL.
Still for that read-out and setting: the result for `NNC(=O)c1ccncc1` [ISONIAZID] reads 0.047 µg/mL (≈ 0.343 µM); that for `CC1=CC[C@@H]([C@@H](C)[C@H]2CC[C@@]3(C)C4=C(CC[C@]23C)[C@@]2(C)CCC(=O)C(C)(C)[C@@H]2CC4)OC1=O`, above 50 µg/mL.
Still for that read-out and setting: then `CC(=O)OC[C@]12CCC(=O)OC(C)(C)[C@@H]1CCC1=C2CC[C@]2(C)[C@@H]([C@H](C)[C@H](C/C=C(/C)C(=O)O)OC(C)=O)CC[C@@]12C`, with above 50 µg/mL.
Still for that read-out and setting: the result for `CC(=O)O[C@@H](C/C=C(/C)C(=O)O)[C@@H](C)[C@H]1CC[C@@]2(C)C3=CC[C@@H](C(C)(C)OC(C)=O)[C@]4(CCC(=O)OC4)C3=CC[C@]12C` reads above 50 µg/mL; that for `CC(=O)OC[C@@]1(CCC(=O)O)C2=C(CC[C@H]1C(C)(C)O)[C@]1(C)CC[C@H]([C@H](C)[C@@H]3CC=C(C)C(=O)O3)[C@@]1(C)CC2`, 25 µg/mL (≈ 45.9 µM); that for `CC1=CC[C@@H]([C@@H](C)[C@H]2CC[C@@]3(C)C4=C(CC[C@]23C)[C@]23CC[C@H](OC2=O)C(C)(C)[C@@H]3CC4)OC1=O`, above 50 µg/mL.
`CC(=O)OC[C@]12CC[C@H](O)C(C)(C)[C@@H]1CCC1=C2CC[C@]2(C)[C@@H]([C@H](C)[C@H](C/C=C(/C)C(=O)O)OC(C)=O)CC[C@@]12C` showed an MIC above 50 µg/mL.
Same read-out and setting: then `CC(=O)O[C@@H]1C[C@H]([C@H](C)[C@@H]2CC=C(C)C(=O)O2)[C@@]2(C)CCC3=C(CC[C@H]4C(C)(C)OC(=O)C=C[C@]45C[C@H]35)[C@]12C`, with 25 µg/mL (≈ 46.6 µM); and `CC(=O)OC[C@@]1(CCC(=O)O)C2=CC[C@]3(C)[C@@H]([C@H](C)[C@H](C/C=C(/C)C(=O)O)OC(C)=O)CC[C@@]3(C)C2=CC[C@H]1C(C)(C)O`, with above 50 µg/mL; and `CC(=O)OC[C@@]1(CCC(=O)O)C2=C(CC[C@H]1C(C)(C)O)[C@]1(C)CC[C@H]([C@H](C)[C@H]3OC(=O)C(C)=C[C@@H]3O)[C@@]1(C)CC2`, with above 50 µg/mL.
For the molecule `CC(=O)O[C@@H](C/C=C(/C)C(=O)O)[C@@H](C)[C@H]1CC[C@@]2(C)C3=C(C=C4C=CC(=O)OC(C)(C)[C@@H]4CC3)CC[C@]12C`, the MIC is above 50 µg/mL.
